This note sets out measurements from ChEMBL document CHEMBL1147500, “A prodrug approach to COX-2 inhibitors with methylsulfone” (Bioorg Med Chem Lett, 2004).

In data set [1] the test system is Rattus norvegicus. In words: Effective dose against adjuvant-induced arthritis (AA) in male lewis rats upon peroral administration (bid). To be noted: po. The data set is classed as functional.
The subject of data set [2] is Rattus norvegicus. Nature of the data set: Inhibition of adjuvant-induced arthritis (AA) in SD rats upon peroral administration (BID) at 0.1 mg/kg/day. Format: functional. To be noted: route oral.
Data set [3] relates to Rattus norvegicus. In words: Inhibition of adjuvant-induced arthritis (AA) in SD rats upon peroral administration (BID) at 0.3 mg/kg/day. Format: functional. To be noted: route oral.
A short description of data set [4]: Tmax value at a dose of 10 mg/kg in male SD rats. The data set is classed as ADME, organism-based. Details: dose 10 mg/kg. To be noted: rat, in vivo.
Data set [5] is described as follows: Area under curve (0-24 hr) at a dose of 10 mg/kg in male SD rats. Particulars: rat, in vivo. Format: ADME, organism-based. Also noted: time < 24 hr, dose 10 mg/kg.
The nature of data set [6]: Cmax value at a dose of 10 mg/kg in male SD rats. Format: ADME, organism-based. Details: dose 10 mg/kg. Particulars: rat, in vivo.
Data set [7] is described as follows: Tmax value at a dose of 100 mg/kg in male SD rats. The data set is classed as ADME, organism-based. Also noted: dose 100 mg/kg. To be noted: rat, in vivo.
Data set [8] can be described thus: Tmax value at a dose of 50 mg/kg in male SD rats. Format: ADME, organism-based. Details: dose 50 mg/kg. Particulars: rat, in vivo.
Data set [9] in a line: Area under curve (0-24 hr) at a dose of 100 mg/kg in male SD rats. The data set is classed as ADME, organism-based. Details: time < 24 hr, dose 100 mg/kg. To be noted: rat, in vivo.
A short description of data set [10]: Area under curve (0-24 hr) at a dose of 50 mg/kg in male SD rats. The data set is classed as ADME, organism-based. Also noted: time < 24 hr, dose 50 mg/kg. Particulars: rat, in vivo.
Data set [11] is described as follows: Cmax value at a dose of 100 mg/kg in male SD rats. Details: dose 100 mg/kg. The data set is classed as ADME, organism-based. Particulars: rat, in vivo.
Data set [12] in a line: Cmax value at a dose of 50 mg/kg in male SD rats. The data set is classed as ADME, organism-based. Details: dose 50 mg/kg. To be noted: rat, in vivo.
Data set [13] deals with T1, Prostaglandin G/H synthase 1 (Mus musculus, UniProt P22437).
T1 sequence (P22437 whole entry): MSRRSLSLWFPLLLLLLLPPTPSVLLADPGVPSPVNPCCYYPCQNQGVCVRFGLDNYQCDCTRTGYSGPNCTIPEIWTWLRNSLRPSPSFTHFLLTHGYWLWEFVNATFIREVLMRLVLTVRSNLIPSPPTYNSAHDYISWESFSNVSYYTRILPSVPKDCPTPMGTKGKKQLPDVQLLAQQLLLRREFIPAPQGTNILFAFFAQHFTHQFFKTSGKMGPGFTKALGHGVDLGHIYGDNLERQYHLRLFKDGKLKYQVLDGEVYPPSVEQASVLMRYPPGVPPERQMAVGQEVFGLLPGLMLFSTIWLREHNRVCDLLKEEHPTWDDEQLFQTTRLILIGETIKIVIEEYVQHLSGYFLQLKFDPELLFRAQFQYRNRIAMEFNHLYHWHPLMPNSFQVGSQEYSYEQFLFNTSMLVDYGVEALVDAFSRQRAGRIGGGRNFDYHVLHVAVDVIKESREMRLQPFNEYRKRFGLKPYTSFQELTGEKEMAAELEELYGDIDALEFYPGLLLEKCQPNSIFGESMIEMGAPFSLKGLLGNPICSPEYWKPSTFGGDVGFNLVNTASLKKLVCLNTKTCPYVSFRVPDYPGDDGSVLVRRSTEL
In words: Inhibitory concentration against prostaglandin G/H synthase 1 in mouse peritoneal macrophages.

The test system of data set [14] is Rattus norvegicus. In words: Effective dose against adjuvant-induced arthritis (AA) in SD rats upon peroral administration (QD). Format: functional. Particulars: po.
Data set [15] is described as follows: Cmax upon oral administration in male Beagle dog at 10 mg/kg. The data set is classed as ADME, organism-based, Canis lupus familiaris. Also noted: dose 10 mg/kg, route oral. To be noted: in vivo.
In data set [16] the target is T2, Prostaglandin G/H synthase 2 (Mus musculus, UniProt Q05769).
T2 sequence (Q05769 whole entry): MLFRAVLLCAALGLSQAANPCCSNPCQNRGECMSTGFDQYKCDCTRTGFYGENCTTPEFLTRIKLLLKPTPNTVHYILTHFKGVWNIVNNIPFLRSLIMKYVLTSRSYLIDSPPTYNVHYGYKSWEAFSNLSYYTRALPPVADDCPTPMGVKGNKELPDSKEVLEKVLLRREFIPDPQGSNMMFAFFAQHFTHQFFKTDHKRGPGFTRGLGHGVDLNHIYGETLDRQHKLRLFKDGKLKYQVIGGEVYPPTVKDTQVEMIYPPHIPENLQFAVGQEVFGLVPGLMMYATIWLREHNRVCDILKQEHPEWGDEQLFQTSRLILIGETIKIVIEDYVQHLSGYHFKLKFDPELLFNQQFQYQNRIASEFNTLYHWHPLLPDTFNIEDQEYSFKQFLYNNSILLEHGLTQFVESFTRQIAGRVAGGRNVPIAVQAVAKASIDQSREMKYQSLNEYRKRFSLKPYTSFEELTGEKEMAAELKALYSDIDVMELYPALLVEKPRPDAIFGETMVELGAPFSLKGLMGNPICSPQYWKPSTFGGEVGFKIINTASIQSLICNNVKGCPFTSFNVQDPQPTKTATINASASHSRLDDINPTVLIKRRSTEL
Nature of the data set: Inhibitory concentration against prostaglandin G/H synthase 2 in mouse peritoneal macrophages.

As a reminder, the ED50 is the dose at which the effect has come halfway, by size or by number of responders. As usually defined, the inhibition in vivo is the change of the read-out against control, counted positive when it falls. Usually Tmax stands for the time at which the peak concentration occurs. Broadly, the AUC(0-t) is exposure summed from dosing to a finite time, without extrapolation to infinity. One may read the Cmax as the maximum level reached in the sampled fluid or tissue. Usually IC50 stands for the concentration that inhibits the measured activity by half.

As to `C[S+]([O-])c1ccc(C2=C(c3cc(F)cc(F)c3)C(=O)C(C)(C)O2)cc1` (stereo not drawn), in the data set with Rattus norvegicus [1], the ED50 is around 0.2 mg/kg/day. Moreover, the inhibition in vivo at 0.1 mg/kg/day with Rattus norvegicus [2] is 40%. In the data set with Rattus norvegicus [3], the inhibition in vivo at 0.3 mg/kg/day was found to be 76%.

On to `CC1(C)OC(c2ccc(S(C)(=O)=O)cc2)=C(c2cccc(Cl)c2)C1=O`, for which, in data set [4], the Tmax stood at 1.5 h. Moreover, the AUC(0-t) at 24 h in data set [5] was found to be 12700 ng·h/mL. The compound further gave a Cmax in [6] of 1390 ng/mL.

On to `C[S+]([O-])c1ccc(C2=C(c3cccc(Cl)c3)C(=O)C(C)(C)O2)cc1` (stereo not drawn), for which, in data set [4], the time of peak concentration (Tmax) turned out to be 0.5 h. The same compound showed an AUC(0-t) at 24 h in data set [5] of 3610 ng·h/mL. In data set [6], this compound had a Cmax of 460 ng/mL.

Take `CC1(C)OC(c2ccc(S(C)(=O)=O)cc2)=C(c2cc(F)cc(F)c2)C1=O`: the Tmax in data set [4] is 2 h; in data set [7], 5 h; in [8] it was 4.3 h. The values for the AUC(0-t) at 24 h in [5], in data set [9] and in data set [10] were 23100 ng·h/mL, 487000 ng·h/mL and 359000 ng·h/mL, respectively. Moreover, the Cmax in data set [6] turned out to be 2580 ng/mL; in data set [11], 24900 ng/mL; in data set [12] it was 11700 ng/mL; in data set [15], 130 ng/mL. Also, the IC50 in data set [13] is 13.2 µM; in data set [16] it was 0.0529 µM. In addition, in the data set with Rattus norvegicus [14], the ED50 amounted to 0.03 mg/kg/day.

With `COc1ccc2c(c1)c(CC(=O)O)c(C)n2C(=O)c1ccc(Cl)cc1` [INDOMETHACIN], in the data set with Rattus norvegicus [3], the inhibition in vivo at 0.3 mg/kg/day is 60%.
